Experiments:
[1] = xn = mol fraction of the nth substance listed; conditions: 100 kPa, Liquid, x1 = 1; for viscosity: Capillary tube (Ostwald / Ubbelohde) method; for mass density: Vibrating tube method
[2] = 100 kPa, Liquid; for viscosity: Capillary tube (Ostwald / Ubbelohde) method; for mass density: Vibrating tube method

CCCCCO [pentan-1-ol] + CCCC(C)O
[1]
Conditions | mass density [kg/m3] | viscosity [mPa·s]
288.15 K | 818.56 | 4.698
293.15 K | 814.92 | 4.043
298.15 K | 811.26 | 3.501
303.15 K | 807.57 | 3.028
308.15 K | 803.86 | 2.671
313.15 K | 800.11 | 2.335
318.15 K | 796.32 | 2.052
323.15 K | 792.48 | 1.81
328.15 K | 788.61 | 1.607

CCCCCO [pentan-1-ol] + CCC(C)CO
[1]
Conditions | mass density [kg/m3] | viscosity [mPa·s]
288.15 K | 818.56 | 4.698
293.15 K | 814.92 | 4.043
298.15 K | 811.26 | 3.501
303.15 K | 807.57 | 3.028
308.15 K | 803.86 | 2.671
313.15 K | 800.11 | 2.335
318.15 K | 796.32 | 2.052
323.15 K | 792.48 | 1.81
328.15 K | 788.61 | 1.607

CCC(C)CO (stereo not drawn) [2-methyl-1-butanol]
[2]
Conditions | mass density [kg/m3] | viscosity [mPa·s]
288.15 K | 823.35 | 6.439
293.15 K | 819.64 | 5.3
298.15 K | 815.85 | 4.501
303.15 K | 812.12 | 3.825
308.15 K | 808.29 | 3.265
313.15 K | 804.41 | 2.783
318.15 K | 800.47 | 2.379
323.15 K | 796.47 | 2.06
328.15 K | 792.41 | 1.787

CCCCCO [pentan-1-ol]
[2]
Conditions | mass density [kg/m3] | viscosity [mPa·s]
288.15 K | 818.56 | 4.698
293.15 K | 814.92 | 4.043
298.15 K | 811.26 | 3.501
303.15 K | 807.57 | 3.028
308.15 K | 803.86 | 2.671
313.15 K | 800.11 | 2.335
318.15 K | 796.32 | 2.052
323.15 K | 792.48 | 1.81
328.15 K | 788.61 | 1.607

CCCC(C)O (stereo not drawn) [pentan-2-ol] + CCC(C)CO
[1]
Conditions | mass density [kg/m3] | viscosity [mPa·s]
288.15 K | 813.34 | 5.057
293.15 K | 809.38 | 4.174
298.15 K | 805.35 | 3.398
303.15 K | 801.24 | 2.82
308.15 K | 797.05 | 2.336
313.15 K | 792.78 | 1.99
318.15 K | 788.42 | 1.706
323.15 K | 783.99 | 1.472
328.15 K | 779.46 | 1.306

CCCC(C)O (stereo not drawn) [pentan-2-ol]
[2]
Conditions | mass density [kg/m3] | viscosity [mPa·s]
288.15 K | 813.34 | 5.057
293.15 K | 809.38 | 4.174
298.15 K | 805.35 | 3.398
303.15 K | 801.24 | 2.82
308.15 K | 797.05 | 2.336
313.15 K | 792.78 | 1.99
318.15 K | 788.42 | 1.706
323.15 K | 783.99 | 1.472
328.15 K | 779.46 | 1.306

From the NIST ThermoML archive (doi:10.1021/acs.jced.8b00979)
